system: HBV; experiment: qPCR test in the HBV in vitro test (HBV DNA in HepG2.2.15 cells); assay type: cell-based; details: Hepatitis B virus, 192 h, HBV DNA in HepG2.2.15 culture medium, day 8, read-out: Half maximal inhibitory concentration (EC50) of HBV
Protocol: To evaluate the inhibitory effect of the compound on HBV by detecting content of HBV DNA in HepG2.2.15 cells in a real-time qPCR test, with EC50 of the compound as an indicator.
3.1. HepG2.2.15 cells (4×10^4 cells/well) were inoculated into a 96-well plate and cultured at 37° C. in 5% CO2 overnight. 3.2. On day 2, the compound was 3-fold diluted in gradient for a total of 8 dilution gradients. The compound at different concentrations was added into the culture wells in duplicate. The final concentration of DMSO in the culture medium was 1%. 1 μM GLS4 was used as a 100% inhibition control (the structure of GLS4 disclosed in WO2008154817A1 is as follows:
1% DMSO was used as a 0% inhibition control. 3.3. On day 5, the culture medium was replaced with a fresh culture medium containing the compound. 3.4. On day 8, the culture medium in the culture wells was collected, and the high-throughput DNA purification kit (Qiagen-51162) was used to extract DNA. For specific steps, refer to the product manual.
3.6. Each well of the 96-well PCR plate was added with 15 μL of the reaction mixture, and then with 10 μL of sample DNA or HBV DNA standard. 3.7. The reaction conditions for PCR: heating at 95° C. for 10 min, degeneration at 95° C. for 15 s, and extension at 60° C. for 1 min, with a total of 40 cycles.
3.8.1. Calculation of the inhibition percentage: % Inh.=[1−(DNA copy number in the sample−DNA copy number in 1 μM GLS4)/(DNA copy number in the DMSO control−DNA copy number in 1 μM GLS4)]×100. 3.8.2. Calculation of EC50: half maximal inhibitory concentration (EC50) of the compound for HBV was calculated using GraphPad Prism software. 3.8.3.

| SMILES | EC50 |
| --- | --- |
| CC1(NC(=O)C(=O)c2c(Cl)c(C(=O)Nc3ccc(F)c(F)c3)c3n2CCC3)CCC(CC(=O)O)CC1 (stereo not shown) [Compound 13] | 19 nM |
| CC(C)(CCCC(=O)O)NC(=O)C(=O)c1c(Cl)c(C(=O)Nc2ccc(F)c(F)c2)c2n1CCC2 [Compound 23] | 27 nM |
| CC(C)(C)OC(=O)C[C@H]1CC[C@](C)(NC(=O)C(=O)c2c(Cl)c(C(=O)Nc3cc(F)c(F)c(F)c3)c3n2CCC3)CC1 [Compound 25-3] | 4 nM |
| C[C@@H](NC(=O)C(=O)c1c(Cl)c(C(=O)Nc2ccnc(Cl)c2)c2n1CCC2)C(F)(F)F [Compound 14] | 70 nM |
| CC(C)(CCCCC(=O)O)NC(=O)C(=O)c1c(Cl)c(C(=O)Nc2cc(F)c(F)c(F)c2)c2n1CCC2 [Compound 27] | 12 nM |
| O=C(O)C[C@H]1CC[C@](NC(=O)C(=O)c2c(Cl)c(C(=O)Nc3cc(F)c(F)c(F)c3)c3n2CCC3)(C(F)(F)F)CC1 [Compound 29] | 3 nM |
| COCC1(NC(=O)C(=O)c2c(Cl)c(C(=O)Nc3ccc(F)c(F)c3)c3n2CCC3)CCOCC1 [Compound 11] | 4 nM |
| CC1(NC(=O)C(=O)c2cc(C(=O)Nc3ccc(F)c(F)c3)c3n2CCC3)CCOCC1 [Compound 1] | 35 nM |
| CC1(NC(=O)C(=O)c2c(Cl)c(C(=O)Nc3ccc(F)c(F)c3)c3n2CCC3)CCN(CC(=O)O)CC1 [Compound 4] | 580 nM |
| CC(C)(CCC(=O)O)NC(=O)C(=O)c1c(Cl)c(C(=O)Nc2ccc(F)c(F)c2)c2n1CCC2 [Compound 16] | 41 nM |
| CC1(NC(=O)C(=O)c2cc(C(=O)Nc3ccc(F)c(F)c3)c3n2CCCC3)CCOCC1 [Compound 6] | 110 nM |
| O=C(O)CC1CCC(NC(=O)C(=O)c2c(Cl)c(C(=O)Nc3cc(F)c(F)c(F)c3)c3n2CCC3)(C(F)(F)F)CC1 (stereo not shown) [Compound 28] | 2 nM |
| CC1(NC(=O)C(=O)c2c(Cl)c(C(=O)Nc3cc(F)c(F)c(F)c3)c3n2CCC3)CCOCC1 [Compound 10] | 2 nM |
| CC1(NC(=O)C(=O)c2c(Cl)c(C(=O)Nc3ccc(F)c(F)c3)c3n2CCC3)CCOCC1 [Compound 2] | 3 nM |
| O=C(NC12CCC(C(=O)O)(CC1)CC2)C(=O)c1c(Cl)c(C(=O)Nc2ccc(F)c(F)c2)c2n1CCC2 [Compound 15] | 37 nM |
| CC1(NC(=O)C(=O)c2c(Cl)c(C(=O)Nc3ccnc(Cl)c3)c3n2CCC3)CCOCC1 [Compound 7] | 30 nM |
| N#CC1(NC(=O)C(=O)c2c(Cl)c(C(=O)Nc3ccc(F)c(F)c3)c3n2CCC3)CCC(CC(=O)O)CC1 (stereo not shown) [Compound 24] | 299 nM |
| Cc1c(C(=O)Nc2ccc(F)c(F)c2)c2n(c1C(=O)C(=O)NC1(C)CCOCC1)CCC2 [Compound 3] | 5 nM |
| N#CC1(NC(=O)C(=O)c2c(Cl)c(C(=O)Nc3ccc(F)c(F)c3)c3n2CCC3)CCOCC1 [Compound 12] | 5 nM |
| C[C@]1(NC(=O)C(=O)c2c(Cl)c(C(=O)Nc3ccc(F)c(F)c3)c3n2CCC3)CC[C@@H](CCC(=O)O)CC1 [Compound 21] | 3 nM |
| C[C@]1(NC(=O)C(=O)c2c(Cl)c(C(=O)Nc3ccc(F)c(F)c3)c3n2CCC3)CC[C@H](C(=O)O)CC1 [Compound 19] | 20 nM |
| C[C@]1(NC(=O)C(=O)c2c(Cl)c(C(=O)Nc3ccc(F)c(F)c3)c3n2CCC3)CC[C@@H](C(=O)O)CC1 [Compound 20] | 11 nM |
| O=C(O)C[C@H]1CC[C@@](NC(=O)C(=O)c2c(Cl)c(C(=O)Nc3cc(F)c(F)c(F)c3)c3n2CCC3)(C(F)(F)F)CC1 [Compound 30] | 1 nM |
| CC1(NC(=O)C(=O)c2c(C(F)(F)F)c(C(=O)Nc3ccc(F)c(F)c3)c3n2CCC3)CCOCC1 [Compound 9] | 41 nM |
| CC1(NC(=O)C(=O)c2c(Cl)c(C(=O)Nc3ccc(F)c(C#N)c3)c3n2CCC3)CCOCC1 [Compound 5] | 7 nM |
| C[C@]1(NC(=O)C(=O)c2c(Cl)c(C(=O)Nc3ccc(F)c(F)c3)c3n2CCC3)CC[C@H](CCC(=O)O)CC1 [Compound 22] | 14 nM |
| CC1(NC(=O)C(=O)c2c(Br)c(C(=O)Nc3ccc(F)c(F)c3)c3n2CCC3)CCOCC1 [Compound 8] | 9 nM |
| COC(=O)C[C@H]1CC[C@](C)(NC(=O)C(=O)c2c(Cl)c(C(=O)Nc3cc(F)c(F)c(F)c3)c3n2CCC3)CC1 [Compound 31] | 5 nM |
| N#CC1(NC(=O)C(=O)c2c(Cl)c(C(=O)Nc3cc(F)c(F)c(F)c3)c3n2CCC3)CCC(CC(=O)O)CC1 (stereo not shown) [Compound 26] | 174 nM |

target: T1, CYP2D6 (Homo sapiens, UniProt P10635); experiment: Inhibition of human liver microsomal cytochrome P450 isoenzymes; assay type: in vitro ADME; details: human liver microsomes
T1 construct: from tissue; host or cells: human liver microsomes
T1 sequence (P10635 whole entry): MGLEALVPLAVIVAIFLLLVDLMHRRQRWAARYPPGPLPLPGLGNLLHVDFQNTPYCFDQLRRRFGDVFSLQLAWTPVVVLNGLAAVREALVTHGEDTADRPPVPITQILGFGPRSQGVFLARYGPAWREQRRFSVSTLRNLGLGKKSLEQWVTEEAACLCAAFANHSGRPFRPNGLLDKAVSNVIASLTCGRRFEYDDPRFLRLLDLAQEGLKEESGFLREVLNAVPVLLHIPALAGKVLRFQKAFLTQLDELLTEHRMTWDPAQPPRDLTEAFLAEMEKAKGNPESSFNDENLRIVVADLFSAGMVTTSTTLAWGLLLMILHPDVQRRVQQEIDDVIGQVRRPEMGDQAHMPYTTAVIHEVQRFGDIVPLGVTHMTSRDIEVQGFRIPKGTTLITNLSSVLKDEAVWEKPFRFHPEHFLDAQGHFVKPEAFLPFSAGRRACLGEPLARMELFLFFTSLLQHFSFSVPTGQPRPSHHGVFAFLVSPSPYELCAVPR
Protocol: (§1) Experimental objective: to determine the inhibitory effect of the test compound on the activity of human liver microsomal cytochrome P450 isoenzymes (CYP1A2, CYP2C9, CYP2C19, CYP2D6 and CYP3A4). Experimental procedures: first, the test compound (10 mM) was diluted in gradient to prepare working solutions (100× final concentration) at concentrations of: 5, 1.5, 0.5, 0.15, 0.05, 0.015, and 0.005 mM, and working solutions of positive inhibitors for P450 isoenzymes (CYP1A2, CYP2C9, CYP2C19, CYP2D6, and CYP3A4) and the specific substrate mixtures thereof (5 in 1) were prepared simultaneously; human liver microsomes frozen in a−80° C. refrigerator were thawed on ice, and after all thawed, the human liver microsomes were diluted with PB to prepare a working solution at a specific concentration (0.253 mg/mL); 20 μL of the substrate mixture (20 μL of PB was added into the blank well) and 158 μL of the working solution of human liver microsomes were added into the reaction plate which was then placed on ice for use; then 2 μL of the test compound at each concentration (N=1) and a specific inhibitor (N=2) were added into the corresponding well, and the group without the inhibitor (test compound or the positive inhibitor) was added with a corresponding organic solvent as a control sample (the test compound control sample was 1:1 DMSO:MeOH; the positive control sample was 1:9 DMSO:MeOH); after pre-incubation under a 37° C. water bath for 10 min, 20 μL of a coenzyme factor (NADPH) solution was added into the reaction plate and incubated under a 37° C. water bath for 10 min, 400 μL of a cold acetonitrile solution (the internal standard was 200 ng/mL Tolbutamide and Labetalol) was added to terminate the reaction, and the reaction plate was placed on a shaker and shaken for 10 min; after centrifugation at 4,000 rpm for 20 min, 200 μL of the supernatant was collected and added to 100 μL of water to dilute the sample, and, finally, the plate was sealed, oscillated shaken evenly, and subjected to LC/MS/MS detection.

| SMILES | IC50 |
| --- | --- |
| CC1(NC(=O)C(=O)c2c(Cl)c(C(=O)Nc3ccc(F)c(F)c3)c3n2CCC3)CCOCC1 [Compound 2] | > 50000 nM |

target: T2, CYP1A2 (Homo sapiens, UniProt P05177); experiment: as above; assay type: in vitro ADME; details: human liver microsomes
T2 construct: from tissue; host or cells: human liver microsomes
T2 sequence (P05177 1-516): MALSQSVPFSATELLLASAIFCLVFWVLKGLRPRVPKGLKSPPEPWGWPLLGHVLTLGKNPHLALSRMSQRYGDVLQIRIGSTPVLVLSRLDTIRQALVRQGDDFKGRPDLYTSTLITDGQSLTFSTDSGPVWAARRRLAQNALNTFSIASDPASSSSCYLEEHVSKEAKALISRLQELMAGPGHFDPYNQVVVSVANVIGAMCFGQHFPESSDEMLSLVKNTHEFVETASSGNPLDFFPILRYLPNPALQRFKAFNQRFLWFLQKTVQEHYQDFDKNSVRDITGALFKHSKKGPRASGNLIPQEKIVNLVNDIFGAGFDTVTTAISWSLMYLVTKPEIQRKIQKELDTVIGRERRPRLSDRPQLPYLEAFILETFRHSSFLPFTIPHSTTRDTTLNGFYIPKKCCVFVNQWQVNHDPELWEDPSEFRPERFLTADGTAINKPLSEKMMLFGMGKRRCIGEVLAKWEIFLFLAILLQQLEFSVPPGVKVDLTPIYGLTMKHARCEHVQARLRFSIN
Protocol: as §1

| SMILES | IC50 |
| --- | --- |
| CC1(NC(=O)C(=O)c2c(Cl)c(C(=O)Nc3ccc(F)c(F)c3)c3n2CCC3)CCOCC1 [Compound 2] | > 50000 nM |

target: T3, CYP2C9 (Homo sapiens, UniProt P11712); experiment: as above; assay type: in vitro ADME; details: human liver microsomes
T3 construct: from tissue; host or cells: human liver microsomes
T3 sequence (P11712 whole entry): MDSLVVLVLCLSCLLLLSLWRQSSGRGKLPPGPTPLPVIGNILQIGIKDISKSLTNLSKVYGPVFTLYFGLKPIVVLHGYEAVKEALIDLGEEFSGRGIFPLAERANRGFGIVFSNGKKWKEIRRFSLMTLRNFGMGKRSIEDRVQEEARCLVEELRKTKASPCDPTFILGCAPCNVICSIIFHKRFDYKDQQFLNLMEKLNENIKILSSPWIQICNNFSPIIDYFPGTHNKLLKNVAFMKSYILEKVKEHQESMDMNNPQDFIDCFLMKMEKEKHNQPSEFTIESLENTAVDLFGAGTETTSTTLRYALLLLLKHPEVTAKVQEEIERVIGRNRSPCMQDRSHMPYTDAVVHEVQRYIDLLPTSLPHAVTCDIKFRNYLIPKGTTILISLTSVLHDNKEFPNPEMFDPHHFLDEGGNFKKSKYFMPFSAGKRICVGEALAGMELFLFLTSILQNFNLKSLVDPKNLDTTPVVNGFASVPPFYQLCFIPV
Protocol: as §1

| SMILES | IC50 |
| --- | --- |
| CC1(NC(=O)C(=O)c2c(Cl)c(C(=O)Nc3ccc(F)c(F)c3)c3n2CCC3)CCOCC1 [Compound 2] | > 50000 nM |

target: T4, CYP2C19 (Homo sapiens, UniProt P33261); experiment: as above; assay type: in vitro ADME; details: human liver microsomes
T4 construct: from tissue; host or cells: human liver microsomes
T4 sequence (P33261 whole entry): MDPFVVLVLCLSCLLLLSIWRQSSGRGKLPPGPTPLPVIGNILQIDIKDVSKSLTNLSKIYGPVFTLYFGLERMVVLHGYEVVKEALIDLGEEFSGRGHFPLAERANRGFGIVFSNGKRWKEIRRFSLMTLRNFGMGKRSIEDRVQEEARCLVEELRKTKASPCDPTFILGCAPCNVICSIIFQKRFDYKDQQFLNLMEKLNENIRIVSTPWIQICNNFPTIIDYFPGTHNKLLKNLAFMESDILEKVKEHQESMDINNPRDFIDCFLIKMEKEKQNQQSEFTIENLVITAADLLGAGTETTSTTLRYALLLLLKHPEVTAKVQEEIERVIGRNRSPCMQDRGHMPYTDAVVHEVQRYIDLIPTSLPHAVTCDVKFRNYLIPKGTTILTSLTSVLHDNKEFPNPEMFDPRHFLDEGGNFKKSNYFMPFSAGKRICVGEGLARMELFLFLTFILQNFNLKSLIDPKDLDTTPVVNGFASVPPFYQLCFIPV
Protocol: as §1

| SMILES | IC50 |
| --- | --- |
| CC1(NC(=O)C(=O)c2c(Cl)c(C(=O)Nc3ccc(F)c(F)c3)c3n2CCC3)CCOCC1 [Compound 2] | > 50000 nM |

target: T5, CYP3A4 (Homo sapiens, UniProt P08684); experiment: as above; assay type: in vitro ADME; details: human liver microsomes
T5 construct: from tissue; host or cells: human liver microsomes
T5 sequence (P08684 whole entry): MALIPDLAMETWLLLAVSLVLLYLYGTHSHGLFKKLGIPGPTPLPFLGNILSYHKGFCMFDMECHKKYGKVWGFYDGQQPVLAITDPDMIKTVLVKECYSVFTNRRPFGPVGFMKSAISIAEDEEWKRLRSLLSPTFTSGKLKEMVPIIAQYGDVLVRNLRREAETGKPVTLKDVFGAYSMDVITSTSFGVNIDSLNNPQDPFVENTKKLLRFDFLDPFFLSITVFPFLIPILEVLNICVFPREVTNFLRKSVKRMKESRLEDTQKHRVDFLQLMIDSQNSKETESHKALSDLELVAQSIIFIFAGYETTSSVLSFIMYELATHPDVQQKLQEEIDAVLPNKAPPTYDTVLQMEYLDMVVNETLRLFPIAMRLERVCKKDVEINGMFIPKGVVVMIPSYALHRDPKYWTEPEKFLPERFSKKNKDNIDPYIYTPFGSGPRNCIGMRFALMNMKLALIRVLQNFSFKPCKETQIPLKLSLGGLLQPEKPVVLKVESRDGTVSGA
Protocol: as §1

| SMILES | IC50 |
| --- | --- |
| CC1(NC(=O)C(=O)c2c(Cl)c(C(=O)Nc3ccc(F)c(F)c3)c3n2CCC3)CCOCC1 [Compound 2] | > 50000 nM |
